Experimental data reported in patent US20110171221A1, “COMPOSITIONS AND METHODS FOR THE TREATMENT OF A NEOPLASIA” (University of Florida Research Foundation, priority 2008, published 2011).
“Also recorded” adds a separate entry of the source.

How the values were obtained:
[1] = tested on: Sox2, Oct 3/4 and Nanog expression in metastatic prostate stem cell lines; experiment: Western blot of stem cell markers after Docetaxel; type: cell-based, human; settings: Docetaxel 1 nM, 2 nM, 5 nM, 10 nM
Protocol: (§1) Prostate cancer stem cells from metastatic prostate cancer cell lines were examined for their sensitivity to conventional cancer treatments (e.g., radiation and chemotherapy). […] Metastatic prostate stem cell lines were also treated with Docetaxel, a frontline treatment for drug-resistant cancer cells.
For the experiments described above, Western-blot analysis was performed by standard methods on isolated cancer stem cells and non-cancer stem cells. Whole cell lysates were prepared in lysis buffer with a commercially available protease inhibitor cocktail (Pierce) at 4° C., followed by centrifugation at 13,000×g for 10 min. Extracts were separated by SDS/PAGE and transferred to nitrocellulose membranes. The membranes were blocked with 5% nonfat dry milk in 20 mM Tris-HCl (pH 7.5), 500 mM sodium chloride, and 0.05% Tween 20 for 2 h and then incubated with commercially available primary antibodies against OCT3/4, c-Myc, β-actin (Cell Signaling), SOX2, Klf4 (Santa Cruz), Nanog (BioLegend), or E-cadherin (BD Bioscience) in the same buffer with 1% BSA (fraction V). After washing, the blots were incubated with an HRP-conjugated secondary antibody and visualized with a commercially available chemiluminescence detection system (Amersham). β-actin-specific Abs were used to ensure equal protein loading.

[2] = tested on: prostate cancer stem cells (CSC) and non-stem prostate cancer cells (Non-CSC); experiment: cell viability after Docetaxel; type: cell-based, human; settings: 5 nM Docetaxel, Day 0, 1, 2 and 3 (up to 72 hours)
Protocol: FIG. 12B is a graph depicting the cell viability of prostate cancer stem cells (CSC) and non-stem prostate cancer cells (Non-CSC) observed for up to 72 hours after treatment with Docetaxel. Cell viability was determined by quantifying the surviving prostate cancer stem cells (CSC) and non-stem prostate cancer cells (Non-CSC) in the samples exposed to 5 nM Docetaxel at Day 0, 1, 2 and 3.
as §1

CC(=O)O[C@@]12CO[C@@H]1C[C@H](O)[C@@]1(C)C(=O)[C@H](O)C3=C(C)[C@@H](OC(=O)[C@H](O)[C@@H](NC(=O)OC(C)(C)C)c4ccccc4)C[C@@](O)([C@@H](OC(=O)c4ccccc4)[C@H]21)C3(C)C [Docetaxel]
detection of Sox2, Oct 3/4 and Nanog expression [1]: increased detection of Sox2, Oct 3/4 and Nanog expression with increasing dose
cell viability of prostate cancer stem cells vs non-stem prostate cancer cells [2]: more cell viability compared to non-stem prostate cancer cells; also recorded: resistant
